Laboratory results taken from patent EP4324461A1, “(E)-N-CINAMOYLAMINOALKANOLES WITH MELANOGENESIS INHIBITORY ACTIVITY” (UNIWERSYTET JAGIELLONSKI, priority 2022, dated 2024).

How the values were obtained:
Hepatocarcinoma HepG2 = experiment: Safety, LDH test in HepG2; assay type: cell-based; conditions: 48 hours, positive control Triton X-100
Method: (§1) In order to test the safety of the compounds, both normal human cells were used: keratinocytes (HaCaT), fibroblasts (BJ), primary melanocytes that occur in the skin, as well as human cancer cells: the hepatocarcinoma line HepG2 and the neuroblastoma line SH-SY5Y, which are considered a model for the assessment of hepatocytotoxicity and neurocytotoxicity. The concentrations of the tested compounds in the range of 250-100 µM were used in the studies. The cell lines used in the research were purchased from the American Type Culture Collection (ATCC) and were cultured in media recommended by the manufacturer with the addition of FBS and antibiotics in an incubator ensuring appropriate culture conditions, i.e. humidity, temperature and CO2 concentration. Cells were seeded into multiwell plates and incubated with the test compounds for 48 hours. After this time, MTT and LDH tests were performed to assess cell viability. The MTT test is based on the ability to transform the substrate: [3-(4,5-dimethyl-2-thiazolyl)-2,5-diphenyl-2H-tetrazolium bromide into a colored product only by living cells. The absorbance at 570 nm, which corresponds to the absorption maximum for the product, is directly proportional to cell viability. The LDH test is based on testing the activity of the enzyme lactate dehydrogenase in the culture medium, which is released from cells as a result of damage to the cell membrane, e.g. as a result of cell death. Triton X-100 was used as a positive control in the test. The determination is colorimetric, the substrate is transformed by the released enzyme into a colored product, an increase in absorbance indicates a larger amount of the released enzyme, and thus confirms greater damage to cell membranes. Tables 7 and 8 present the results obtained, which correspond to the viability of cells incubated with the compounds in relation to the viability of cells constituting a control sample, i.e. incubated with the solvent (DMSO) at the same concentration as in the case of the groups tested in the MTT test or in relation to the results obtained for the Triton X-100 positive control in the LDH test. They indicate that the compounds are safe at the concentrations tested. Table 7. Viability of tested normal human cell lines: keratinocytes (HaCaT), fibroblasts (BJ) and primary melanocytes after incubation with the tested compounds - determination in the MTT test (% of solvent control ± SD) and LDH (percentage of positive control - Triton X-100.

[1] = target: T1, tyrosinase released from B16-F10 cells (Mus musculus, UniProt P11344); experiment: Inhibition of tyrosinase activity released from B16-F10 cells; assay type: cell-based, murine; conditions: α-MSH induced cells, lysate, L-DOPA 0.5 mM
T1 construct: endogenous in cells; host or cells: B16-F10 murine melanoma cells, α-MSH stimulated, Triton X-100 lysate
Method: 50,000 cells were placed in each well of a 24-well plate (in F10-Ham medium, 1% FBS). After 24 h of culture, the tested compounds were added in fresh medium (DMEM, 1% FBS), with an additional 5 µM of α-melanocorticotropic hormone (α-MSH) in the medium to induce melanogenesis. Three wells on the plate constituted a control sample without the melanogenesis inducer (α-MSH) and without the tested compounds. After 24 hours of incubation under these conditions, the medium was removed and the cells were washed twice with PBS. 100 µL of lysis buffer composed of 90 µL of 50 mM potassium phosphate buffer, 5 µL of 0.1 mM phenylmethylsulfonyl fluoride and 5 µL of 1% Triton X-100 were added to the wells. The plates were placed at -80 °C for 30 minutes. Cell lysates were then centrifuged for 30 min (4 °C, 12,000 rpm), and then 80 µL of the supernatant was transferred to 96-well plates. […] After a 30-minute incubation, the absorbance was measured at 475 nm using a microplate reader. The percentage of inhibition of tyrosinase activity was calculated using the formula: [(AC -AT)/AC] × 100, where AC - is the absorbance of the negative control (from wells in which cells were cultured without the tested compounds), AT - is the absorbance of the sample from wells in which cells were cultured in the presence of the test compound.

Fibroblasts (BJ) = experiment: Safety, MTT test in fibroblasts; assay type: cell-based; conditions: 48 hours
Method: as §1

[2] = test system: Chinese hamster ovary cell line (CHO-K1); experiment: Genotoxicity in the micronucleus test in CHO-K1 cells; assay type: cell-based
[3] = test system: Balb/c 3T3 murine fibroblast cell line; experiment: Phototoxicity in Balb/c 3T3 fibroblasts (neutral red uptake)
Method: Balb/c 3T3 cells, which are an immortalized murine fibroblast cell line, were purchased at ATTC and cultured in the medium recommended by the manufacturer (DMEM GlutaMAX, newborn calf serum (BCS), antibiotics). After multiplication, cells were placed in 96-well plates, which were incubated for 24 hours, after which all wells of the plates were washed with 150 µL of balanced salt solution (HBSS). Then, after drying the plates, 100 µL of a solution of the tested compounds in HBSS with 2% FBS was added to each well and incubated for an hour. After this time, some of the plates were irradiated using the Suntest CPS+ sunlight simulator from Atlas with appropriate filters cutting off radiation with a wavelength <320 nm (UVA radiation intensity 5 J/cm^2). The second part of the plates was placed in radiation-free conditions for the same period of time. After the exposure time, the liquid was removed from all plates and the wells were washed twice with 150 µL of HBSS, then supplemented with fresh culture medium and incubated for 24 hours in an incubator (37 °C, 5% CO2). Viability was assessed in the neutral red uptake test, which is based on the ability of the dye to penetrate only into living cells. Dye uptake was confirmed by absorbance measurement at 540 nm. […] The appropriate coefficients were also calculated: mean phototoxic effect (MPE) and photoirritation factor (PIF). PIF is the ratio of the IC50 values of unirradiated to irradiated cells, while MPE is based on the comparison of concentration-response curves. […]

T1 sequence (P11344 19-533): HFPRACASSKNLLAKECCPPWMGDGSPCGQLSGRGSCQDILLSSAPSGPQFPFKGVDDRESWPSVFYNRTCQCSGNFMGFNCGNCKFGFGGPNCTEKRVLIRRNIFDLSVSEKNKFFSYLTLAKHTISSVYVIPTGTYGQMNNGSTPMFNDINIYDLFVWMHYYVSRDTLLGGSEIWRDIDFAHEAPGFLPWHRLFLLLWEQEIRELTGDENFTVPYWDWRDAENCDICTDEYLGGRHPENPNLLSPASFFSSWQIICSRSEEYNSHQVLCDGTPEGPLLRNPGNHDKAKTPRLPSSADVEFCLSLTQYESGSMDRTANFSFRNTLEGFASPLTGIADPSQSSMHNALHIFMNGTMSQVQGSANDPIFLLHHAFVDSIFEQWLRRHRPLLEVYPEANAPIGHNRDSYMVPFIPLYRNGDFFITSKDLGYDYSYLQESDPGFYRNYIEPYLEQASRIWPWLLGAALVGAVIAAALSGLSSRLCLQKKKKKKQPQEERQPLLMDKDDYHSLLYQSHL

O=C(/C=C/c1ccc(Cl)cc1)NCCCCCO [Compound A-111, (2E)-3-(4-chlorophenyl)-N-(5-hydroxypentyl)prop-2-enamide]
Hepatocarcinoma HepG2 LDH (Hepatocarcinoma HepG2; 100 µM): 4.90 percentage of positive control | Hepatocarcinoma HepG2 LDH (Hepatocarcinoma HepG2; 150 µM): 4.73 percentage of positive control | Hepatocarcinoma HepG2 LDH (Hepatocarcinoma HepG2; 200 µM): 5.48 percentage of positive control | Hepatocarcinoma HepG2 LDH (Hepatocarcinoma HepG2; 250 µM): 9.75 percentage of positive control | inhibition of tyrosinase activity released from B16-F10 cells [1]: inhibit the activity of tyrosinase released from B16-F10 cells | Fibroblasts (BJ) MTT (Fibroblasts (BJ); 100 µM): 99.88±5.25 % of solvent control | Fibroblasts (BJ) MTT (Fibroblasts (BJ); 150 µM): 100.94±3.37 % of solvent control | Fibroblasts (BJ) MTT (Fibroblasts (BJ); 200 µM): 98.94±4.04 % of solvent control | Fibroblasts (BJ) MTT (Fibroblasts (BJ); 250 µM): 94.51±5.03 % of solvent control | DB (dicentric bridges in 1000 binucleate cells) ([2]; 100 µM): 2.5 ± 0.7 | MN (number of micronuclei in 1000 binucleate cells) ([2]; 100 µM): 4.5 ± 3.5 | NB (nuclear buds in 1000 binucleate cells) ([2]; 100 µM): 2.0 ± 2.8 | NDI (nuclear division index) ([2]; 100 µM): 1.60 | DB (dicentric bridges in 1000 binucleate cells) ([2]; 150 µM): 4.0 ± 2.8 | MN (number of micronuclei in 1000 binucleate cells) ([2]; 150 µM): 9.0 ± 5.7 | NB (nuclear buds in 1000 binucleate cells) ([2]; 150 µM): 6.0 ± 1.0 | NDI (nuclear division index) ([2]; 150 µM): 1.64 | DB (dicentric bridges in 1000 binucleate cells) ([2]; 200 µM): 2.0 ± 2.8 | MN (number of micronuclei in 1000 binucleate cells) ([2]; 200 µM): 10.0 ± 4.2 | NB (nuclear buds in 1000 binucleate cells) ([2]; 200 µM): 2.5 ± 0.7 | NDI (nuclear division index) ([2]; 200 µM): 1.64 | phototoxic potential ([3]; Balb/c 3T3, neutral red uptake): do not have phototoxic potential | PIF ([3]; photoirritation factor: ratio of IC50 of unirradiated to irradiated cells): No phototoxicity | cytotoxicity towards the mouse fibroblasts ([3]; with and without exposure to UVA): devoid of cytotoxicity
